This passage reports melting point results from a melting point compilation (Tetko et al.; mined from patent text by program, amines drawn as free bases though some values may be those of a salt).

The term melting point denotes the temperature of the solid-liquid transition. Compound `Clc1nc(Cl)c(-c2ccccc2)c(-c2ccccc2)n1` yielded a melting point of 144 to 146 °C.

Take `Cc1cc(Cl)ccc1NC=NO`: the melting point was in the range of 171 to 172 °C. Regarding `CCS(=O)(=O)N(C)[C@@H]1c2cc([N+](=O)[O-])ccc2OCC[C@H]1O` (relative stereo), the melting point was 133 to 135 °C. For the compound `CCOC(=O)COc1cc(-c2ccccc2)nc2ccccc12`, the melting point is 96 °C. `COc1ccc(Sc2ccnc(Nc3ccc(OCCN(C)C)cc3)n2)cc1` returned a melting point of 112 to 113 °C.

Turning to `COc1ccc2[nH]c(C(F)(F)F)c(C#N)c2c1`, the melting point was 189 to 190 °C. Turning to `COC(=O)C(=CNc1ncnc2ccc(NC(=O)C(C)(C)C)cc12)C(=O)OC`, the melting point lay within 189 to 190 °C. As for `O=C1OC(Cc2ccccc2)CN1c1ccccc1` (stereo unspecified), the figure is 90 °C; as for `CNc1c(F)cc2c(=O)c(C(=O)O)cn(-c3nc(N)c(F)cc3F)c2c1Br`, 205 to 208 °C; as for `CC(=NOCCOc1ccc(CC2SC(=O)NC2=O)cc1)c1ccc(-c2ccc3c(c2)OCO3)cc1` (stereo unspecified), 137 to 139 °C.

With `CN1CC(=O)Nc2ccc(F)cc2C1=O`, the melting point was > 250 °C.

On to `CSCC#Cc1cc(F)c2ncc(C(=O)NCc3ccc(Cl)cc3)c(O)c2c1`, for which the melting point was in the range of 259 to 261 °C. Regarding `O=C1N=NC(CO)=C1c1ccccc1`, the melting point was in the range of 165 to 168 °C. In turn, `O=Cc1c(O)ccc2ncccc12` had a melting point of 136 to 137 °C. In turn, `Cc1cc(O)cc(C)c1C=O` showed a melting point of 190 °C. As for `O=C(O)C(=O)Nc1ccccc1C(=O)NC1CCN(C2CCCCC2)C1` (stereo unspecified), the melting point is 268 to 270 °C. The compound `CC(C)(C)OC(=O)C(CCC(N)=O)N1Cc2c(OCc3ccc(CN4C5CCC4COC5)cc3)cccc2C1=O` (stereo unspecified) displayed a melting point of 243 to 245 °C. `Cc1cccc(-c2c3c(cc4ccc(O)cc24)-c2ccc(O)cc2CO3)c1` showed a melting point of 219 to 222 °C. `CCc1cc(I)c(CC)cc1I`: the melting point was 68 to 69 °C. For the compound `Nn1cc(Br)c(=O)[nH]c1=O`, the melting point fell in the range of 214 to 215 °C. `O=C(O)c1ccc(-c2ccc(-c3ccc(C(F)(F)F)cc3)o2)cc1`: the melting point is 270 to 271 °C. As for `O=C(O)CC1CCCc2cc(S(=O)(=O)c3ccccc3)ccc21` (stereo unspecified), the melting point was 144 °C. For the compound `O=C(CC1CCCC1)NC[C@H]1CN(c2ccc3c(c2)CCCc2cn[nH]c2-3)C(=O)O1`, the melting point was in the range of 205 to 208 °C. On to `COc1ccc(C=CC(=O)c2c(OC)cc(OC)cc2OC(=O)CCCC(=O)O)cc1`, for which the melting point was in the range of 131 to 132 °C. As for `Nc1ncc(-c2cccc(-n3cnc4cc(-c5ccco5)ccc43)c2)cn1`, the figure is 220 to 222 °C; as for `Oc1cccc2cnsc12`, 185 to 187 °C; as for `CCOC(=O)c1cn2c3c(ccc(C)c3c1=O)CCC2C` (stereo unspecified), 106 to 108 °C.

`Cc1cncn1Cc1nc2ccccc2n1-c1ccccc1` had a melting point of 100 to 102 °C. `Fc1ccc(Cl)c2ncccc12` displayed a melting point of 74 to 76 °C. As for `CC(C(=O)O)c1ccc(N2CCC=N2)c(Cl)c1` (stereo unspecified), the melting point fell in the range of 94 to 102 °C.

`CCc1c(Cl)cc(C(C)(C)C)c(O)c1-c1nc2ccc(S(=O)(=O)C(F)(F)F)cc2c(=O)[nH]1` gave a melting point of 285 to 286 °C. Consider `COC(=O)c1[nH]c(SCc2ccccn2)nc1CCNC(=O)[C@H](Cc1ccccc1)NC(=O)N(Cc1ccccc1)NC(=O)C(C)(C)C`, for which the melting point is 171 to 172 °C. The compound `N#Cc1ccc(OCC(NNC(=O)Nc2ccc(OC(F)(F)F)cc2)c2ccccc2)cc1` (stereo unspecified) came in with a melting point of 176 °C. Regarding `COC(=O)COc1ccc(SCc2cc(-c3ccc(Cl)cc3)on2)c2c1CCCO2`, the melting point lay within 131 to 133 °C. `CC12CCC3c4ccc(O)cc4CCC3C1CCC2OC(=O)c1cccnc1` (stereo unspecified) returned a melting point of 221 to 222 °C. Turning to `NS(=O)(=O)c1ccc(-n2nc(CCCNC(=O)Nc3ccccc3)cc2-c2ccccc2)cc1`, the melting point fell in the range of 171 to 172 °C. Then `Cn1nc2c([N+](=O)[O-])cc3nc(O)c(O)nc3c2n1`, with > 300 °C. Compound `N#CCN1C(=O)COc2cc(F)c(-n3c(=O)n4n(c3=O)CCCC4)cc21` showed a melting point of 286 to 287 °C. `O=C(O)COc1cc2onc(-c3ccccc3F)c2cc1Br` came in with a melting point of 223 to 224 °C.

`CNC(=O)c1ccccc1Nc1nc(Nc2ccc3c(c2)CCC(NCC(F)F)CC3)ncc1Cl` (stereo unspecified) had a melting point of 182 to 183 °C. `NCC#CC1(Cl)C=CC=CC1C(=O)c1ccccc1Cl` (stereo unspecified) registered a melting point of 81 to 82 °C. For the compound `CCOC(=O)c1[nH]cc2c1C1C=CC2CC1` (stereo unspecified), the melting point fell in the range of 129 to 130 °C. As to `Cc1c(Cl)[nH]c(=O)n(Cc2ccccc2)c1=O`, the melting point lay within 202 to 205 °C. On to `O=Cc1ccc(-c2ccc(O)cc2)c2sccc12`, for which the melting point lay within 202 to 204 °C.

`CC1(C)Oc2ccc(C#N)cc2C(Nn2ccccc2=O)C1(C)O` (stereo unspecified) registered a melting point of 184 to 187 °C.

Regarding `CCOC(=O)Nc1ccc(NCc2coc3ccc(F)cc23)cc1N`, the melting point was in the range of 150 to 151 °C.

With `c1ccc(N2CCN(Cc3n[nH]c4ccccc34)CC2)nc1`, the melting point was in the range of 148 to 150 °C. As for `NC(=O)CNC(=O)c1cccc(-c2ccc(F)c3cc(Cc4cc(F)cc(Cl)c4)sc23)c1`, the figure is 166 to 167 °C. As for `N#Cc1ccc(-c2ccc(-c3cn4cc(C#N)ccc4n3)o2)cc1`, the figure is 298 to 300 °C.

Turning to `Cc1oc(-c2ccccc2)nc1COc1ccccc1C=CC=Cc1nnn[nH]1`, the melting point is 192 to 193 °C.

`CCNc1ncccc1-c1cscc1-c1cccnc1F` displayed a melting point of 127 to 129 °C. For `NN(Cc1ccccc1[N+](=O)[O-])c1ccccc1`, the melting point lay within 67 to 69 °C. For `COc1cc(CNC(C)=O)c(Cl)cc1O`, the melting point is > 300 °C.

The compound `Cn1nc(-c2ccc(N)c([N+](=O)[O-])c2)c2ccccc21` yielded a melting point of 231 °C.

In the case of `Cn1c(Nc2c(Cl)ccc(CNC(=O)C(C)(C)C)c2Cl)nc2cc(C(=O)N[C@H]3CC[C@H](C(F)(F)F)CC3)c(N3CCC(C(F)(F)F)CC3)nc21`, the melting point lay within 185 to 186 °C. Then `CCOC(=O)OC12Oc3cc(C(C)C)ccc3C1(OC(=O)OCC)C(=O)c1ccccc12` (stereo unspecified), with 150 to 153 °C.

In the case of `CCOC(=O)C(C#N)=Cc1ccc(NC(C)=O)cc1`, the melting point was determined as 187 °C.

For `O=C(NC1CCOC1=O)c1cc2c(n(CC3CCCCC3)c1=O)CCCCCC2` (stereo unspecified), the melting point was 136 to 140 °C. In turn, `NC(=O)[C@@H]1CCCN1C(=O)CNP(=O)(Cc1ccccc1)Cc1ccccc1` returned a melting point of 91 to 95 °C. Then `O=C1Cc2ccc(F)cc2Sc2cc(F)c(Cl)cc21`, with 131 to 133 °C; and `CC(C)(C)C(=O)N(O)Cc1ccccc1Cl`, with 100 to 102 °C; and `COC(=O)c1cccc(-c2csc(N=C(N)N)n2)n1`, with 240 °C. For the compound `Cc1cc(CCCOc2c(C)cc(-c3noc(=O)[nH]3)cc2C)on1`, the melting point fell in the range of 194 to 195 °C.

`CCOC(=O)c1cnn(-c2c(Cl)cc(C(F)(F)F)cc2Cl)c1N` registered a melting point of 131 to 134 °C. As for `Nc1cc(-c2ccncc2)cc2nc(-c3ccco3)nn12`, the melting point fell in the range of 294 to 296 °C. `CCc1ccc2nc(C)[nH]c(=O)c2c1` gave a melting point of 165 to 185 °C. As for `O=C(Cc1cc(F)cc(F)c1)Nc1ccc(NCc2ccc(F)cc2)nc1N1CCOCC1`, the melting point was in the range of 196 to 198 °C. The compound `CC(=O)OC1CSC(Oc2cccnc2-c2cccnc2)C(OC(C)=O)C1OC(C)=O` (stereo unspecified) had a melting point of 70 °C.

`O=C(O)C(O)N1C(=O)CCN1c1cccc(F)c1` (stereo unspecified) gave a melting point of 115 to 116 °C. The compound `O=c1cc(O)cc(-c2cccc(Cl)c2)o1` returned a melting point of 254 to 256 °C. `O=C1CCC2=C(CCc3c(F)cccc32)N1` returned a melting point of 233 to 234 °C. The compound `COC(=O)c1cc2cc(C(=O)c3cccc(C(C)C(=O)OC)c3)sc2s1` (stereo unspecified) registered a melting point of 122 °C. `FC(F)C(F)(F)Oc1cccc(Nc2nccc(-c3cccc(OC(F)(F)F)c3)n2)c1` showed a melting point of 98 to 100 °C. Compound `C[C@@H]1CNC(=O)c2cc3c(Cl)cccc3n21` showed a melting point of 180 to 184 °C.

`CCCCCCCCc1cc2c(cc1/C=C/c1ccc(C(=O)O)cc1)CCC(C)(C)CC2` displayed a melting point of 180 °C. For the compound `COCc1nc2cc3c(cc2c(=O)[nH]1)C(Nc1ccc(C(=O)OC(C)(C)C)cc1)CC3` (racemic), the melting point was > 122 °C. In turn, `CC(C)COP(C)(=O)CC(=O)CNC(=O)OC(C)(C)C` (stereo unspecified) yielded a melting point of 65 to 68 °C. Consider `O=C(c1ccc(Cl)cc1)c1sc2cc(O)ccc2c1-c1ccccc1`, for which the melting point is 222 °C. Compound `O=C(O)c1ccc(CCCc2ccccc2Cc2ccccc2)cc1` came in with a melting point of 135 to 136 °C. For `O=C(NC(Cc1ccc(OCc2ccccc2)cc1)C(=O)O)c1cc2ccc(-c3ccc(Cl)cc3)cc2s1` (stereo unspecified), the melting point was 237 to 239 °C. `CC(C)(C)C(=O)OCN1C(=O)CC2(C1=O)C(=O)N(Cc1ccc(Cl)c(Cl)c1)c1ccccc12` (stereo unspecified): the melting point was in the range of 134 to 135 °C. In the case of `COc1cc(OC)nc(NC(=O)NS(=O)(=O)Cc2ccccc2C(=O)N(C)C)n1`, the melting point lay within 141 to 143 °C. For `O=C(O)CCc1c(-c2ccccc2)noc1-c1ccccc1`, the melting point lay in the range of 152 to 153 °C. Then `CCOC(=O)c1c(C(F)(F)F)nc(-c2ccccc2)c(-c2ccccc2)c1O`, with 130 °C; and `O=c1c2ccccc2sn1SCc1ccccc1`, with 111 to 112 °C; and `COc1ccc2c(c1)-c1c(nn(-c3ccccn3)c1O)CC2`, with 116 to 117 °C.

Regarding `CCOC(=O)C(=Cc1cscc1OC)N=[N+]=[N-]`, the melting point was 88 to 90 °C. In the case of `COC(=O)CCC(=O)c1ccc2oc3ccccc3c2c1`, the melting point lay in the range of 106 to 108 °C.

The compound `O=c1oc2c(c(O)c1C(c1ccccc1)C1CC1)CCC2` (stereo unspecified) displayed a melting point of 183 to 185 °C. Regarding `O=C(O)CC(Br)C(Br)c1ccc(Cl)cc1Cl` (stereo unspecified), the melting point is 184 to 185 °C. Then `O=C(CCCCCS(=O)c1ccc(Cl)cc1)NO` (stereo unspecified), with 125 °C.
